In US20230382863A1, “MEK INHIBITORS AND USES THEREOF” (Ikena Oncology, Inc., priority 2022, published 2023):

Assays:
uMEK/BRAF = uMEK/BRAF (Homo sapiens (Human), UniProt Q02750); assay: MEK-RAF Binding Assay (uMEK/BRAF HTRF)
pERK HCT-116 (G13D) = pERK HCT-116 (G13D) ICW (4 hour); assay type: cell-based; conditions: Homo sapiens, read-out: pERK HCT-116 (G13D) ICW (4 hour): Average IC50 (nM)
[1] = tested on: Phosphorylation of MEK1/2 in AsPC1 cells; assay: 4 hour pMEK1/2 MSD Assay; assay type: cell-based; conditions: Homo sapiens; AsPC1, 4 hours; read-out: pMEK IC50
Experimental: AsPC1 cells were seeded at 10,000 cells/well overnight in 96-well plates, then treated with a 12-point dose response of compounds (Starting dose of 1000 nM and 3-fold dilution) for 4 hours. AsPC1 cells are a K-Ras mutant (G12D) pancreatic cancer cell line. Phosphorylation of MEK1/2 on residues Ser217 and Ser221 were detected using a MesoScale Discovery (MSD) assay (MSD Cat #K15129D-2). MEK1/2 phosphorylation levels were normalized to total MEK1/2 protein detected in each well on the same MSD plate. IC50 values were determined by fitting a variable slope, four parameters curve to the compound concentration to normalized Phospho-MEK1/2 relationship.

[2] = Cassette pharmacokinetics studies in mice; assay type: in vivo; conditions: male, Balb/c, plasma, Mouse
Method in brief: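 Male Balb/c mice (3 per route) received cassette doses in 5% DMSO/95% PEG400 at 2 mg/kg IV (1 mg/kg where IV*) or 5 mg/kg PO. Plasma sampled to 24 h, acetonitrile-precipitated with internal standard, quantified by HPLC/MS/MS against 0.5-1,000 ng/mL standards.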

Pharmacokinetics in rat = assay type: in vivo; conditions: plasma, IV, 0.2 mg/kg
MEK1-CRAF complex = MEK1-CRAF complex (Homo sapiens (Human), UniProt Q02750); assay: Stabilization of MEK1-CRAF complex assay (AlphaLISA); assay type: binding
Sequence of MEK1-CRAF complex (Q02750 whole entry, looked up): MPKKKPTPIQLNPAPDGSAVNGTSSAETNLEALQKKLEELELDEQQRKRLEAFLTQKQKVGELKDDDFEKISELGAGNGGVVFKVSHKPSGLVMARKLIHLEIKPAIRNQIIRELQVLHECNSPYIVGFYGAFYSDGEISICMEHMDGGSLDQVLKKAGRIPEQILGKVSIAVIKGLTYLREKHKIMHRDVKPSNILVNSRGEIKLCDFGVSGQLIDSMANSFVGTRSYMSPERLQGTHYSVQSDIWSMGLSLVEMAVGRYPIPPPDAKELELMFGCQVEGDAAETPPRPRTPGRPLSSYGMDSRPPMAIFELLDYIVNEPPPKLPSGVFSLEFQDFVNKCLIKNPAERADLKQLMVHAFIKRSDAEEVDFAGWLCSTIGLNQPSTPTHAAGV
Sequence of MEK1-CRAF complex (P04049 whole entry partner, looked up): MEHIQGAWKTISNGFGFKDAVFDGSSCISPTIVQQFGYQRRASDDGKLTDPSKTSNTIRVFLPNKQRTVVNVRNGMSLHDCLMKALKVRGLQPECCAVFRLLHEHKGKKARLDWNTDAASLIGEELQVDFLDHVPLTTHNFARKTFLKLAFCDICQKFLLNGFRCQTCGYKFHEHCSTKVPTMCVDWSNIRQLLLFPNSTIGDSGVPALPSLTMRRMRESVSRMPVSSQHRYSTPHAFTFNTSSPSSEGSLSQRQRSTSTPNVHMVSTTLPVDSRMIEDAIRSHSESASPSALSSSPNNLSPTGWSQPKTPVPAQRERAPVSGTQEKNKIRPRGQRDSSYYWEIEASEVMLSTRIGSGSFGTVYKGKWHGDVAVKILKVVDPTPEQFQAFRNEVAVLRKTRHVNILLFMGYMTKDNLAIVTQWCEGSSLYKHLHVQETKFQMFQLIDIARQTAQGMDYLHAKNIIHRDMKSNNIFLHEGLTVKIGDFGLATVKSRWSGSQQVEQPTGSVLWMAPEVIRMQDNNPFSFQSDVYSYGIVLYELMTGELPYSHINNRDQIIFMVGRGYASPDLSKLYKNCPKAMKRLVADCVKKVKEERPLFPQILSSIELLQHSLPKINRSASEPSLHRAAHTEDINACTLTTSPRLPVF
Experimental: MEK1 was diluted to 4 nM, and nickel chelate donor beads and glutathione acceptor beads were diluted to 80 μg/mL. CRAF was diluted to a top concentration of 160 nM, which was subsequently diluted to 80, 40, 20, 10, 5, 2.5, 1.25, and 0.625 nM through 1:2 serial dilution.
Exemplary MEK inhibitor compounds (0, 0.01, 0.1, or 1 μM) were added to a 384-AlphaPlate (PerkinElmer, 6008350) by a digital liquid dispenser (Tecan D300e) based on a total volume of 20 μL reaction mixture.
5 μL 4×MEK1 stock solution was added to wells A1-P20 by multichannel pipettes. The plate was sealed with clear olefin sealing tape (Thermo Scientific, 232701), centrifuged at 1000 rpm for 1 minute, and incubated at room temperature for 30 minutes.
5 μL 4×CRAF stock solution at different concentrations or 5 μL or 10 μL AlphaLISA buffer was added by multichannel pipettes. The plate was sealed, centrifuged at 1000 rpm for 1 minute, and incubated at room temperature for 60 minutes.
5 μL 4×glutathione acceptor beads were first added to all wells by multichannel pipettes. The ambient light was subsequently adjusted to <100 lux (light meter) before adding 5 μL 4×nickel chelate donor beads to the same wells. From this step on, the plate was covered with a black plate cover, centrifuged at 1000 rpm for 1 minute, and incubated at room temperature for 60 minutes.
Data were collected on a PHERAStar FSX (BMG LABTECH) using the AlphaLISA module (excitation: 680 nm, emission: 615 nm), with a gain of 3600. The excitation time was 0.30 seconds, and data collection started after a 0.04-second delay for a total integration time of 0.60 seconds.
The individual AlphaLISA counts of wells with exemplary MEK inhibitor compound were divided by the average AlphaLISA counts of wells without compound to obtain AlphaLISA signal/background ratio (S/B). The dissociation constant (KD) of MEK1-CRAF was calculated using nonlinear regression curve fit in GraphPad PRISM® 9.0 software.

Sequence of uMEK/BRAF (Q02750 whole entry): as the sequence (Q02750 whole entry, looked up) above

Q: Which results are given for `CNS(=O)(=O)Nc1cccc(Oc2c(C(=O)NC3CC3)c(Nc3ccc(I)cc3F)n(C)c(=O)c2C)c1OC` [Compound I-1]?
A: IC50 (uMEK/BRAF): < 100 nM; IC50 (pERK HCT-116 (G13D)): < 100 nM; IC50 [1]: < 100 nM; AUC(0-inf) ([2]; IV, 2 mg/kg): 455 ng·h/mL; AUC(0-t) ([2]; IV, 2 mg/kg): 452 ng·h/mL; clearance ([2]; IV, 2 mg/kg): 74.9 mL/min/kg; half-life ([2]; IV, 2 mg/kg): 1.67 h; Vd ([2]; IV, 2 mg/kg, read-out: Vdss): 3.2 L/kg; AUC(0-inf) ([2]; PO, 5 mg/kg): 635 ng·h/mL; AUC(0-t) ([2]; PO, 5 mg/kg): 614 ng·h/mL; Cmax ([2]; PO, 5 mg/kg): 432 ng/mL; Tmax ([2]; PO, 5 mg/kg): 0.4 h; half-life ([2]; PO, 5 mg/kg): 11.6 h; AUC(0-inf) (Pharmacokinetics in rat): 107 ng·h/mL; AUC(0-t) (Pharmacokinetics in rat): 100 ng·h/mL; clearance (Pharmacokinetics in rat): 31.9 mL/min/kg; half-life (Pharmacokinetics in rat): 2.4 h; Vd (Pharmacokinetics in rat; read-out: Vdss): 4.2 L/kg; KD Ratio (mean), compound to DMSO (MEK1-CRAF complex; compound 0.01 μM): 0.80; KD Ratio (mean), compound to DMSO (MEK1-CRAF complex; compound 0.1 μM): 0.55; KD Ratio (mean), compound to DMSO (MEK1-CRAF complex; compound 1 μM): 0.42
